Test results: patent US20050250819A1 (priority 2004, published 2005)

test system: Type III protein secretion of the chimeric SopE‘-’Bla polypeptide (SPI1 type III protein secretion system); test: Primary assay: Type III protein secretion of the chimeric SopE'-'Bla polypeptide by Salmonella enterica; format: cell-based; details: read-out: SopE IC50(μM)
Description: Primary assay: Type III protein secretion of the chimeric SopE‘-’Bla polypeptide by Salmonella enterica. This procedure is a cell-based assay that measures the type III-dependent secretion by Salmonella enterica of a plasmid-encoded chimeric polypeptide whose synthesis can be regulated, and which is endowed with an enzymatic activity that can be monitored colorimetrically by hydrolysis of a substrate that is unable to penetrate into the bacterial cytoplasm within the time constraints of the reaction. Thus, the colormetric reaction is not influenced by SopE‘-’Bla polypeptide in the bacterial cytplasm. Instead, it effectively measures the amount of polypeptide that has been secreted from the S. enterica cytoplasm to the extracellular medium via type III system protein secretion.
The SopE‘-’Bla recombinant polypeptide consists of two functionally distinct domains spliced together. The N-terminus domain is encoded by a polynucleotide region specifying the signal for type III secretion of the SopE polypeptide of S. enterica, an effector of the SPI1 type III protein secretion system. The C-terminus domain of SopE‘-’Bla consists of a 263 amino acid peptide sequence that corresponds to the TEM-1 β-lactamase expressed by plasmid pBR322 but without its N-terminal signal sequence. The TEM-1 β-lactamase part of the SopE‘-’Bla chimeric polypeptide is used as a reporter enzyme. It is capable of hydrolyzing nitrocefin resulting in a product whose accumulation can be monitored by colorimetric detection. The secretion of the SopE‘-’Bla chimeric polypeptide from the cytoplasm to the extracellular medium is dependent on type III protein secretion.
For this procedure, cells grown under conditions known to favor a functional SPI1 secretion system are induced for expression of the SopE‘-’Bla protein and grown either in the presence or in the absence of putative inhibitors for determined time. Nitrocefin is then added to the various cultures and its hydrolysis are used for quantitation. An inhibitor of Type III protein secretion is generally a compound that reduces the signal of the enzymatic reaction by decreasing the amount of SopE‘-’Bla secreted into the extracellular medium.

| Compound | IC50 [µM] |
| --- | --- |
| Cn1cc(C(=O)N/C(=C/c2cccc(C(F)(F)F)c2)C(=O)N[C@H](COCc2ccccc2)C(=O)O)c2ccccc21 [Compound 70, (R)-3-Benzyloxy-2-[2-[(1-methyl-1H-indole-3-carbonyl)amino]-3-(3-trifluoromethylphenyl)acryloylamino]propionic acid] | 86.3 |
| O=C(NC(Cc1ccc(F)cc1)C(=O)O)/C(=C\c1cccc(C(F)(F)F)c1)NC(=O)c1ccc(-c2ccccc2)cc1 (stereo not shown) [Compound 71, 2-[2-[(Biphenyl-4-carbonyl)amino]-3-(3-trifluoromethylphenyl)acryloylamino]-3-(4-fluorophenyl)propionic acid] | 34.2 |
| O=C(NC(Cc1ccc(C(F)(F)F)cc1)C(=O)O)/C(=C\c1cccc(C(F)(F)F)c1)NC(=O)c1ccc(-c2ccccc2)cc1 (stereo not shown) [Compound 72, 2-[2-[(Biphenyl-4-carbonyl)amino)-3-(3-trifluoromethylphenyl)acryloylamino]-3-(4-trifluoromethylphenyl)propionic acid] | 12.8 |
| O=C(N[C@H](COCc1ccccc1)C(=O)O)/C(=C\c1ccc(Cl)c(Cl)c1)NC(=O)C1CCN(c2nccc(C(F)(F)F)n2)CC1 [Compound 73, (R)-3-Benzyloxy-2-(3-(3,4-dichlorophenyl)-2-{[1-(4-trifluoromethylpyrimidin-2-yl)-piperidine-4-carbonyl]amino}acryloylamino)propionic acid] | 12.8 |
| O=C(N[C@@H](Cc1ccc(Cl)cc1)C(=O)O)/C(=C\c1cccc(C(F)(F)F)c1)NC(=O)C1CCN(c2nccc(C(F)(F)F)n2)CC1 [Compound 79, (S)-3-(4-Chlorophenyl)-2-(3-(3-trifluoromethylphenyl)-2-{[1-(4-trifluoromethyl-pyrimidin-2-yl)piperidine-4-carbonyl]amino}acryloylamino)propionic acid] | 25.9 |
| O=C(N[C@H](COCc1ccccc1)C(=O)O)/C(=C\c1ccc(Br)cc1)NC(=O)C1CCN(c2nccc(C(F)(F)F)n2)CC1 [Compound 80, (R)-3-Benzyloxy-2-(3-(4-bromophenyl)-2-{[1-(4-trifluoromethylpyrimidin-2-yl)-piperidine-4-carbonyl]amino}acryloylamino)propionic acid] | 38.5 |
| O=C(N[C@@H](CSCc1ccccc1)C(=O)O)/C(=C\c1ccc(Br)cc1)NC(=O)C1CCN(c2nccc(C(F)(F)F)n2)CC1 [Compound 81, (R)-3-Benzylsulfanyl-2-(3-(4-bromophenyl)-2-{[1-(4-trifluoromethylpyrimidin-2-yl)piperidine-4-carbonyl]amino}acryloylamino)propionic acid] | 58.1 |
| O=C(N[C@@H](Cc1ccc(Cl)cc1)C(=O)O)/C(=C\c1ccc(Br)cc1)NC(=O)C1CCN(c2nccc(C(F)(F)F)n2)CC1 [Compound 82, (S)-2-(3-(4-Bromophenyl)-2-{[1-(4-trifluoromethylpyrimidin-2-yl)piperidine-4-carbonyl]amino}acryloylamino)-3-(4-chlorophenyl)propionic acid] | 27.8 |
| O=C(N[C@@H](Cc1ccc(Cl)cc1)C(=O)O)/C(=C\c1ccc(OC(F)(F)F)cc1)NC(=O)C1CCN(c2nccc(C(F)(F)F)n2)CC1 [Compound 85, (S)-3-(4-Chlorophenyl)-2-(3-(4-trifluoromethoxyphenyl)-2-{[1-(4-trifluoromethyl-pyrimidin-2-yl)piperidine-4-carbonyl]amino}acryloylamino)propionic acid] | 35.2 |
| O=C(O)C(Cc1ccc(Cl)cc1)NC(=O)N(CCc1ccc(-c2ccccc2)cc1)Cc1cccc(C(F)(F)F)c1 (stereo not shown) [Compound 87, 2-[3-(2-Biphenyl-4-yl-ethyl)-3-(3-trifluoromethylbenzyl)ureido]-3-(4-chlorophenyl)propionic acid] | 1.5 |
| O=C(O)[C@H](COCc1ccccc1)NC(=O)N(CCc1ccc(-c2ccccc2)cc1)Cc1cccc(C(F)(F)F)c1 [Compound 88, (S)-3-Benzyloxy-2-[3-(2-biphenyl-4-yl-ethyl)-3-(3-trifluoromethylbenzyl)ureido]propionic acid] | 4 |
| O=C(O)[C@H](COCc1ccccc1)NC(=O)N(CCc1ccc(-c2ccccc2)cc1)Cc1ccc(Cl)c(Cl)c1 [Compound 89, (S)-3-Benzyloxy-2-[3-(2-biphenyl-4-yl-ethyl)-3-(3,4-dichlorobenzyl)ureido]propionic acid] | 2.1 |
| CC(C)(S)C(NC(=O)/C(=C\c1ccc(-c2ccccc2)cc1)NC(=O)c1ccc(C(F)(F)F)cc1)C(=O)O (stereo not shown) [Compound 90] | 7.8 |
| O=C(NC(Cc1ccc(Cl)cc1)C(=O)O)/C(=C\c1ccc(Cl)c(Cl)c1)NC(=O)c1ccc(C(F)(F)F)cc1 (stereo not shown) [Compound 91] | 7.6 |
| CC(C)(S)C(NC(=O)/C(=C\c1ccc(Cl)c(Cl)c1)NC(=O)c1ccc(-c2ccccc2)cc1)C(=O)O (stereo not shown) [Compound 92] | 5 |
| Cc1ccc(/C=C(/NC(=O)c2ccc(-c3ccccc3)cc2)C(=O)NC(C(=O)O)C(C)(C)S)s1 (stereo not shown) [Compound 93] | 1.4 |
| Cc1ccc(/C=C(/NC(=O)c2ccc(-c3ccccc3)cc2)C(=O)NC(C(=O)O)C(C)(C)S)o1 (stereo not shown) [Compound 94] | 55.2 |
| CC(C)(S)C(NC(=O)/C(=C\c1cccc(C(F)(F)F)c1)NC(=O)c1ccc(-c2ccccc2)cc1)C(=O)O (stereo not shown) [Compound 95] | 14.1 |
| O=C(O)CCCCNC(=O)/C(=C\c1cccc(C(F)(F)F)c1)NC(=O)c1ccc(-c2ccccc2)cc1 [Compound 99] | 42 |
| O=C(NC(CCSCc1ccccc1)C(=O)O)/C(=C\c1ccc(Cl)cc1Cl)NC(=O)c1ccc(-c2ccccc2)cc1 (stereo not shown) [Compound 104] | 3.8 |

| Compound | IC50 [µM] |
| --- | --- |
| O=C(N/C(=C/c1ccc(Cl)c(Cl)c1)C(=O)N1CCCCC1C(=O)O)c1ccc(-c2ccccc2)cc1 (stereo not shown) [Compound 107] | 8 |
| NC(=O)C[C@@H](NC(=O)/C(=C\c1ccc(Cl)c(Cl)c1)NC(=O)c1ccc(-c2ccccc2)cc1)C(=O)O [Compound 112] | 16.6 |
| O=C(O)CCCCNC(=O)/C(=C\c1ccc(Cl)c(Cl)c1)NC(=O)c1ccc(-c2ccccc2)cc1 [Compound 113] | 14.5 |
| O=C(NC1(C(=O)O)CCCCC1)/C(=C\c1ccc(Cl)c(Cl)c1)NC(=O)c1ccc(-c2ccccc2)cc1 [Compound 114] | 7.3 |
| CC(C)(S)C(NC(=O)/C(=C\c1ccc(Cl)c(Cl)c1)NC(=O)c1ccccc1)C(=O)O (stereo not shown) [Compound 115] | 61.6 |
| COc1cccc(C(=O)N/C(=C/c2ccc(Cl)c(Cl)c2)C(=O)NC(Cc2ccc(Cl)cc2)C(=O)O)c1 (stereo not shown) [Compound 117] | 15.5 |
| O=C(N/C(=C/c1cccc(C(F)(F)F)c1)C(=O)N1CCCCC1C(=O)O)c1ccc(C(F)(F)F)cc1 (stereo not shown) [Compound 118] | 100 |
| CC(C)(S)C(NC(=O)/C(=C\c1ccc(Cl)c(Cl)c1)NC(=O)c1ccc(C(F)(F)F)cc1)C(=O)O (stereo not shown) [Compound 120] | 22.7 |
| CC(C)(S)C(NC(=O)/C(=C\c1ccc(C(F)(F)F)cc1)NC(=O)c1ccc(-c2ccccc2)cc1)C(=O)O (stereo not shown) [Compound 124] | 16 |
| CCc1ccc(/C=C(/NC(=O)c2ccc(-c3ccccc3)cc2)C(=O)NC(C(=O)O)C(C)(C)S)cc1 (stereo not shown) [Compound 125] | 20 |
| CC(C)(S)C(NC(=O)/C(=C\c1ccc(-c2ccccc2)cc1)NC(=O)c1ccc(-c2ccccc2)cc1)C(=O)O (stereo not shown) [Compound 126] | 3 |
| CC(C)(S)C(NC(=O)/C(=C\c1cccc(Oc2ccccc2)c1)NC(=O)c1ccc(-c2ccccc2)cc1)C(=O)O (stereo not shown) [Compound 127] | 10 |
| O=C(O)CCCCNC(=O)/C(=C\c1ccc(-c2ccccc2)cc1)NC(=O)c1ccc(C(F)(F)F)cc1 [Compound 132] | 42 |
| O=C(NC1(C(=O)O)CCCCC1)/C(=C\c1ccc(-c2ccccc2)cc1)NC(=O)c1ccc(C(F)(F)F)cc1 [Compound 135] | 50 |
| Cc1ccccc1/C=C(/NC(=O)c1ccc(C(F)(F)F)cc1)C(=O)N[C@@H](CSCc1ccccc1)C(=O)O [Compound 138] | 100 |
| O=C(N/C(=C/c1ccc(-c2ccccc2)cc1)C(=O)N1CCCCC1C(=O)O)c1ccc(C(F)(F)F)cc1 (stereo not shown) [Compound 147] | 60 |
| O=C(N[C@@H](CSCc1ccccc1)C(=O)O)/C(=C\c1ccccc1Cl)NC(=O)c1ccc(C(F)(F)F)cc1 [Compound 151] | 50 |
| NC(=O)C[C@@H](NC(=O)/C(=C\c1ccc(-c2ccccc2)cc1)NC(=O)c1ccc(C(F)(F)F)cc1)C(=O)O [Compound 152] | 100 |
| CC(C)(S)C(NC(=O)/C(=C\c1cccc(Oc2ccccc2)c1)NC(=O)c1ccc(C(F)(F)F)cc1)C(=O)O (stereo not shown) [Compound 160] | 16 |
| Cc1ccc(C(=O)N/C(=C/c2ccc(Cl)c(Cl)c2)C(=O)NC(C(=O)O)C(C)(C)S)cc1 (stereo not shown) [Compound 161] | 56 |
